Assay results published in PubChem BioAssay (NCI).
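Five concentrations, 48 hours, 96-well plates. GI50 = concentration required for 50% inhibition of growth. Definition used: TGI = concentration required for complete inhibition of growth.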

Experiments:
Experiment in all cases: NCI-60 cell line screen, 48 h
DMS 114 small cell lung = test system: DMS 114 small cell lung
SR leukemia = test system: SR leukemia
HOP-92 NSCLC = test system: HOP-92 NSCLC
UO-31 renal = test system: UO-31 renal
SK-OV-3 ovarian = test system: SK-OV-3 ovarian
SF-295 CNS = test system: SF-295 CNS
HL-60(TB) leukemia = test system: HL-60(TB) leukemia
EKVX NSCLC = test system: EKVX NSCLC
SNB-19 CNS = test system: SNB-19 CNS
LOX IMVI melanoma = test system: LOX IMVI melanoma
786-0 renal = test system: 786-0 renal
KM20L2 colon = test system: KM20L2 colon
UACC-62 melanoma = test system: UACC-62 melanoma
A498 renal = test system: A498 renal
HOP-62 NSCLC = test system: HOP-62 NSCLC
U251 CNS = test system: U251 CNS
SN12C renal = test system: SN12C renal
COLO 205 colon = test system: COLO 205 colon
SK-MEL-5 melanoma = test system: SK-MEL-5 melanoma
HCT-116 colon = test system: HCT-116 colon
HCC-2998 colon = test system: HCC-2998 colon
NCI-H23 lung = test system: NCI-H23 lung
KM12 colon = test system: KM12 colon
RXF 393 renal = test system: RXF 393 renal
MALME-3M melanoma = test system: MALME-3M melanoma
SNB-78 CNS = test system: SNB-78 CNS
A549 NSCLC = test system: A549 NSCLC
DMS 273 small cell lung = test system: DMS 273 small cell lung
HT29 colon = test system: HT29 colon
RPMI-8226 leukemia = test system: RPMI-8226 leukemia
ACHN renal = test system: ACHN renal
IGROV1 ovarian = test system: IGROV1 ovarian
K-562 leukemia = test system: K-562 leukemia
OVCAR-8 ovarian = test system: OVCAR-8 ovarian
SNB-75 CNS = test system: SNB-75 CNS
NCI-H522 lung = test system: NCI-H522 lung
UACC-257 melanoma = test system: UACC-257 melanoma
M14 melanoma = test system: M14 melanoma
SF-539 CNS = test system: SF-539 CNS
OVCAR-5 ovarian = test system: OVCAR-5 ovarian
SK-MEL-2 melanoma = test system: SK-MEL-2 melanoma
RXF-631 renal = test system: RXF-631 renal
M19-MEL melanoma = test system: M19-MEL melanoma
DLD-1 colon = test system: DLD-1 colon
MOLT-4 leukemia = test system: MOLT-4 leukemia
OVCAR-4 ovarian = test system: OVCAR-4 ovarian
SK-MEL-28 melanoma = test system: SK-MEL-28 melanoma
OVCAR-3 ovarian = test system: OVCAR-3 ovarian
XF 498 CNS = test system: XF 498 CNS
LXFL 529 NSCLC = test system: LXFL 529 NSCLC
NCI-H460 lung = test system: NCI-H460 lung
NCI-H226 lung = test system: NCI-H226 lung
CCRF-CEM leukemia = test system: CCRF-CEM leukemia
HCT-15 colon = test system: HCT-15 colon
SW-620 colon = test system: SW-620 colon
TK-10 renal = test system: TK-10 renal
CAKI-1 renal = test system: CAKI-1 renal
SF-268 CNS = test system: SF-268 CNS

CCC[CH2][Sn]1([CH2]CCC)[O]CC(c2ccccn2)C[O]1
GI50 (DMS 114 small cell lung): 10.2 µM
TGI (DMS 114 small cell lung): 26.7 µM
GI50 (SR leukemia): 12.4 µM
TGI (SR leukemia): 41.7 µM
GI50 (HOP-92 NSCLC): 18.2 µM
TGI (HOP-92 NSCLC): 36.6 µM
GI50 (UO-31 renal): 19.4 µM
TGI (UO-31 renal): 35.5 µM
GI50 (SK-OV-3 ovarian): 24.4 µM
TGI (SK-OV-3 ovarian): 84.8 µM
GI50 (SF-295 CNS): 20.3 µM
TGI (SF-295 CNS): 38.1 µM
GI50 (HL-60(TB) leukemia): 7.65 µM
TGI (HL-60(TB) leukemia): 29.4 µM
GI50 (EKVX NSCLC): 15.5 µM
TGI (EKVX NSCLC): 36.2 µM
GI50 (SNB-19 CNS): 22.1 µM
TGI (SNB-19 CNS): 45 µM
GI50 (LOX IMVI melanoma): 13.7 µM
TGI (LOX IMVI melanoma): 27.7 µM
GI50 (786-0 renal): 15.6 µM
TGI (786-0 renal): 29.3 µM
GI50 (KM20L2 colon): 29.6 µM
TGI (KM20L2 colon): 73.3 µM
GI50 (UACC-62 melanoma): 14.1 µM
TGI (UACC-62 melanoma): 28 µM
GI50 (A498 renal): 26.7 µM
TGI (A498 renal): 50.7 µM
GI50 (HOP-62 NSCLC): 23.3 µM
TGI (HOP-62 NSCLC): 68.6 µM
GI50 (U251 CNS): 15.9 µM
TGI (U251 CNS): 29.6 µM
GI50 (SN12C renal): 19.8 µM
TGI (SN12C renal): 35.3 µM
GI50 (COLO 205 colon): 17.5 µM
TGI (COLO 205 colon): 31.7 µM
GI50 (SK-MEL-5 melanoma): 17 µM
TGI (SK-MEL-5 melanoma): 34.4 µM
GI50 (HCT-116 colon): 19.3 µM
TGI (HCT-116 colon): 33.7 µM
GI50 (HCC-2998 colon): 19.4 µM
TGI (HCC-2998 colon): 34.3 µM
GI50 (NCI-H23 lung): 17.1 µM
TGI (NCI-H23 lung): 35.3 µM
GI50 (KM12 colon): 23.2 µM
TGI (KM12 colon): 59.4 µM
GI50 (RXF 393 renal): 19.5 µM
TGI (RXF 393 renal): 36.7 µM
GI50 (MALME-3M melanoma): 7.93 µM
TGI (MALME-3M melanoma): 19.8 µM
GI50 (SNB-78 CNS): 19.9 µM
TGI (SNB-78 CNS): 61.3 µM
GI50 (A549 NSCLC): 32.1 µM
TGI (A549 NSCLC): > 100 µM
GI50 (DMS 273 small cell lung): 15.7 µM
TGI (DMS 273 small cell lung): 29.6 µM
GI50 (HT29 colon): 20.5 µM
TGI (HT29 colon): 38.3 µM
GI50 (RPMI-8226 leukemia): 7.2 µM
TGI (RPMI-8226 leukemia): 34.5 µM
GI50 (ACHN renal): 19.8 µM
TGI (ACHN renal): 34 µM
GI50 (IGROV1 ovarian): 20.2 µM
TGI (IGROV1 ovarian): 36.6 µM
GI50 (K-562 leukemia): 14.6 µM
TGI (K-562 leukemia): 65.8 µM
GI50 (OVCAR-8 ovarian): 17.9 µM
TGI (OVCAR-8 ovarian): 36.8 µM
GI50 (SNB-75 CNS): 22.5 µM
TGI (SNB-75 CNS): 58 µM
GI50 (NCI-H522 lung): 3.14 µM
TGI (NCI-H522 lung): 11.8 µM
GI50 (UACC-257 melanoma): 17.3 µM
TGI (UACC-257 melanoma): 32.4 µM
GI50 (M14 melanoma): 16.2 µM
TGI (M14 melanoma): 30.7 µM
GI50 (SF-539 CNS): 18.6 µM
TGI (SF-539 CNS): 33.1 µM
GI50 (OVCAR-5 ovarian): 21.3 µM
TGI (OVCAR-5 ovarian): 42.6 µM
GI50 (SK-MEL-2 melanoma): 14 µM
TGI (SK-MEL-2 melanoma): 28.5 µM
GI50 (RXF-631 renal): 15.4 µM
TGI (RXF-631 renal): 29.5 µM
GI50 (M19-MEL melanoma): 14.8 µM
TGI (M19-MEL melanoma): 29.2 µM
GI50 (DLD-1 colon): 15.3 µM
TGI (DLD-1 colon): 29.8 µM
GI50 (MOLT-4 leukemia): 17.2 µM
TGI (MOLT-4 leukemia): 56 µM
GI50 (OVCAR-4 ovarian): 20.7 µM
TGI (OVCAR-4 ovarian): 37.9 µM
GI50 (SK-MEL-28 melanoma): 15.4 µM
TGI (SK-MEL-28 melanoma): 29.4 µM
GI50 (OVCAR-3 ovarian): 16.7 µM
TGI (OVCAR-3 ovarian): 30.5 µM
GI50 (XF 498 CNS): 17.9 µM
TGI (XF 498 CNS): 32.7 µM
GI50 (LXFL 529 NSCLC): 7.96 µM
TGI (LXFL 529 NSCLC): 20.5 µM
GI50 (NCI-H460 lung): 33.5 µM
TGI (NCI-H460 lung): > 100 µM
GI50 (NCI-H226 lung): 31 µM
TGI (NCI-H226 lung): > 100 µM
GI50 (CCRF-CEM leukemia): 4.13 µM
TGI (CCRF-CEM leukemia): 34.8 µM
GI50 (HCT-15 colon): 18.2 µM
TGI (HCT-15 colon): 32.6 µM
GI50 (SW-620 colon): 15.3 µM
TGI (SW-620 colon): 29.5 µM
GI50 (TK-10 renal): 18.9 µM
TGI (TK-10 renal): 33.3 µM
GI50 (CAKI-1 renal): 7.39 µM
TGI (CAKI-1 renal): 22.1 µM

N#CC(C#N)=C(C(C#N)C#N)C(C#N)C#N
TGI (DMS 114 small cell lung): > 100 µM
TGI (SR leukemia): > 100 µM
TGI (HOP-92 NSCLC): > 100 µM
TGI (UO-31 renal): > 100 µM
TGI (SK-OV-3 ovarian): > 100 µM
TGI (SF-295 CNS): > 100 µM
TGI (HL-60(TB) leukemia): > 100 µM
TGI (EKVX NSCLC): > 100 µM
TGI (SNB-19 CNS): > 100 µM
TGI (LOX IMVI melanoma): > 100 µM
TGI (786-0 renal): > 100 µM
TGI (KM20L2 colon): > 100 µM
TGI (UACC-62 melanoma): > 100 µM
TGI (A498 renal): > 100 µM
TGI (HOP-62 NSCLC): > 100 µM
TGI (U251 CNS): > 100 µM
TGI (SN12C renal): > 100 µM
TGI (COLO 205 colon): > 100 µM
TGI (SK-MEL-5 melanoma): > 100 µM
TGI (HCT-116 colon): > 100 µM
TGI (HCC-2998 colon): > 100 µM
TGI (NCI-H23 lung): > 100 µM
TGI (KM12 colon): > 100 µM
TGI (RXF 393 renal): > 100 µM
TGI (MALME-3M melanoma): > 100 µM
TGI (SNB-78 CNS): > 100 µM
TGI (A549 NSCLC): > 100 µM
TGI (DMS 273 small cell lung): > 100 µM
TGI (HT29 colon): > 100 µM
TGI (RPMI-8226 leukemia): > 100 µM
TGI (IGROV1 ovarian): > 100 µM
TGI (K-562 leukemia): > 100 µM
TGI (OVCAR-8 ovarian): > 100 µM
TGI (SNB-75 CNS): > 100 µM
TGI (NCI-H522 lung): > 100 µM
TGI (UACC-257 melanoma): > 100 µM
TGI (M14 melanoma): > 100 µM
TGI (SF-268 CNS): > 100 µM
TGI (SF-539 CNS): > 100 µM
TGI (OVCAR-5 ovarian): > 100 µM
TGI (RXF-631 renal): > 100 µM
TGI (M19-MEL melanoma): > 100 µM
TGI (DLD-1 colon): > 100 µM
TGI (MOLT-4 leukemia): > 100 µM
TGI (OVCAR-4 ovarian): > 100 µM
TGI (OVCAR-3 ovarian): > 100 µM
TGI (XF 498 CNS): > 100 µM
TGI (LXFL 529 NSCLC): > 100 µM
TGI (NCI-H460 lung): > 100 µM
TGI (NCI-H226 lung): > 100 µM
TGI (CCRF-CEM leukemia): > 100 µM
TGI (HCT-15 colon): > 100 µM
TGI (SW-620 colon): > 100 µM
TGI (TK-10 renal): > 100 µM
TGI (CAKI-1 renal): > 100 µM
